Tests used:
[1] = target: T1, Porcine brain tubulin protein (Sus scrofa, UniProt P02554); test: In vitro tubulin polymerization assay; format: biochemical; details: 10 μM
T1 construct: Porcine brain tubulin protein was dissolved in EM buffer; from tissue; host or cells: porcine brain
Method: The ability of compound 3g to disrupt microtubule dynamics was assessed using an in vitro tubulin polymerization assay.
Porcine brain tubulin protein was dissolved in EM buffer containing 5% glycerol (80 mM PIPES, 2 mM GTP, 2 mM MgCl2, and 0.5 mM EGTA, pH 6.9). Compounds were diluted in EM buffer to final concentrations of 50, 25, 10, 5, and 2.5 μM and added to a pre-warmed 384-well plate, followed by pre-incubation at 37 °C. Subsequently, 14 μL of the tubulin-GTP mixture was added to each well containing the test compounds. Tubulin polymerization was monitored by measuring absorbance at 340 nm every minute for 60 min. […] Each assay was performed in triplicate.
Absorbance at 340 nm was determined every 1 min.

[2] = tested on: B16F10 melanoma tumors in BALB/c mice; test: In vivo antitumor efficacy, subcutaneous B16-F10 melanoma model; design: species or system mouse; details: paclitaxel 10 mg/kg i.p. once daily, 14 days, from tumor weight
Method: The in vivo antitumor activity of compound 3g was evaluated using a mouse melanoma tumor model in BALB/c mice. Tumors were established by subcutaneous inoculation of B16F10 cells, and treatment was initiated when tumors reached a measurable size. Mice were administered vehicle control, paclitaxel (PTX, 10 mg/kg), or compound 3g (20 and 50 mg/kg) via intraperitoneal injection once daily for 14 consecutive days.
All animal procedures were approved by the Animal Ethics Committee of the Naval Medical University (permit number: EC11-055). Male BALB/c mice (6–8 weeks old, average initial body weight approximately 18–20 g) were purchased from Shanghai SLAC Laboratory Animal Co., Ltd. The inhibitory effect of compound 3g was evaluated using a subcutaneous B16-F10 melanoma xenograft model. Log-phase B16F10 cells were suspended in PBS and subcutaneously injected into mice (200 μL containing 8 × 10^5 cells per mouse) to establish tumors. Mice were randomly divided into control and treatment groups (n = 8). Compound 3g and paclitaxel were dissolved in a vehicle consisting of DMSO:PEG:Tween-80:saline (v/v/v/v, 5:35:10:50) to the desired concentrations. Treatments (paclitaxel, 10 mg/kg; compound 3g, 20 and 50 mg/kg, doses calculated on a body-weight basis) and vehicle were administered once daily via intraperitoneal injection for 14 consecutive days. Body weights were monitored throughout the study to assess acute toxicity. Tumor volumes were measured using calipers and calculated with the formula: a × b^2 × 0.5, where a and b represent the larger and smaller tumor diameters, respectively. On day 14, mice were sacrificed and tumors were excised and weighed. […] Major organs (liver and kidneys) were collected, fixed in 4% paraformaldehyde, processed into paraffin sections, stained with hematoxylin and eosin (H&E), and examined microscopically.
Murine melanoma B16-F10 xenograft tumors were established in mice, which were then administered vehicle, PTX (10 mg/kg per day), compound 3g (20 mg/kg per day), and compound 3g (50 mg/kg per day) for 14 days. […]

T1 sequence (P02554 whole entry): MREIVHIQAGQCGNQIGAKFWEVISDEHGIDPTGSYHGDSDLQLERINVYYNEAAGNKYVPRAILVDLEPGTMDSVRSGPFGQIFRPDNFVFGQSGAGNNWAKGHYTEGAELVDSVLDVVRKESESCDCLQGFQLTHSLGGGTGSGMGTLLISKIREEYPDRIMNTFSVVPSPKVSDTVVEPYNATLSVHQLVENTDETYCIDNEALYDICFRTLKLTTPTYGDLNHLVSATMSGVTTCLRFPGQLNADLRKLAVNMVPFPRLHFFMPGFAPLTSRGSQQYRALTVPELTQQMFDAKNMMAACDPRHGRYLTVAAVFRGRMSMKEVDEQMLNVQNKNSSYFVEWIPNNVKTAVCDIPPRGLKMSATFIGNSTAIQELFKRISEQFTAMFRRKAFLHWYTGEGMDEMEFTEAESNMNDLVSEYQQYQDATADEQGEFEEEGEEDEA
T1 sequence (P02550 whole entry partner): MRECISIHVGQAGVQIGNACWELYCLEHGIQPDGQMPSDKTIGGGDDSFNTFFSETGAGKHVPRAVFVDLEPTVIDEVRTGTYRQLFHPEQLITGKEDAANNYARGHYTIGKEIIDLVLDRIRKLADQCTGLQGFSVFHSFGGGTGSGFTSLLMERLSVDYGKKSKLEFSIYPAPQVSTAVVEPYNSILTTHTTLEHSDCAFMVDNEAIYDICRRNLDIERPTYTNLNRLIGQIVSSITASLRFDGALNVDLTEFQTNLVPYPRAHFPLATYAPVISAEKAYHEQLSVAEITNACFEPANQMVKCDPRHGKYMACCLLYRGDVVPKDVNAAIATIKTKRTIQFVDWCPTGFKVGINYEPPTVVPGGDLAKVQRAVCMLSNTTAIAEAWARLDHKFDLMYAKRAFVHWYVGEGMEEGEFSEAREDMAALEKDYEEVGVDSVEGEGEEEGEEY

## CC(=O)O[C@H]1C(=O)[C@@]2(C)[C@H]([C@H](OC(=O)c3ccccc3)[C@]3(O)C[C@H](OC(=O)[C@H](O)[C@@H](NC(=O)c4ccccc4)c4ccccc4)C(C)=C1C3(C)C)[C@]1(OC(C)=O)CO[C@@H]1C[C@@H]2O [paclitaxel, reference compound]
[1]
  effect on tubulin polymerization (positive controls): stabilizing
[2]
  tumor growth inhibition (TGI): 59.84%

Reference: paper PMC12693167, “Design, Synthesis and Anticancer Activity of 6-Substituted-1-(3,4,5-trimethoxyphenyl)-1H-indole Against Tubulin Polymerisation” (Molecules, 2025)
